Reference: patent US11072632B2, “Inhibitors of 17β-HSD1, 17β-HSD3 and 17β-HSD10” (UNIVERSITÉ LAVAL, priority 2011, dated 2021)
Like-named read-outs stand apart in the source and are kept apart here.

Experiments:
17β-HSD3 [1] = biological target: T1, 17β-HSD3 (Homo sapiens, UniProt P37058); test: Inhibition of 17β-HSD3 in homogenated HEK-293 cells; type: biochemical
T1 construct: expressed in transfected cells; host or cells: HEK-293 (homogenate)
T1 sequence (P37058 1-310): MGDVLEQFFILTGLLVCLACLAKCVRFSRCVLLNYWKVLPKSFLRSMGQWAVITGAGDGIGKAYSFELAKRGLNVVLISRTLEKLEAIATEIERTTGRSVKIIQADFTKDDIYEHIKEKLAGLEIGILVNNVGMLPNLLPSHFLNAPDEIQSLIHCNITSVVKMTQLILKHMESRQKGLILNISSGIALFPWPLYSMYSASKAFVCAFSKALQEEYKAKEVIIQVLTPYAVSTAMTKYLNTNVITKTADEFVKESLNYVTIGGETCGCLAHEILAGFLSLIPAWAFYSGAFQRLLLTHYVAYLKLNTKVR

17β-HSD3 [2] = biological target: T1, 17β-HSD3; test: Inhibition of 17β-HSD3 in intact HEK-293 cells; type: cell-based; conditions: for inhibition at 0.1 µM: HEK293, 1 h; for Intact cells (%), tested at 1 μM: Table 3, footnote b
17β-HSD10 = biological target: T2, 17β-HSD10 (Homo sapiens, UniProt Q99714); test: Inhibition of 17β-HSD10 in stably transfected HEK-293 whole cells (E2 into E1); type: cell-based; conditions: for IC50: intact transfected HEK-293 cells, E2 1 μM, read-out: IC50
T2 construct: expressed in transfected cells
T2 sequence (Q99714 1-261): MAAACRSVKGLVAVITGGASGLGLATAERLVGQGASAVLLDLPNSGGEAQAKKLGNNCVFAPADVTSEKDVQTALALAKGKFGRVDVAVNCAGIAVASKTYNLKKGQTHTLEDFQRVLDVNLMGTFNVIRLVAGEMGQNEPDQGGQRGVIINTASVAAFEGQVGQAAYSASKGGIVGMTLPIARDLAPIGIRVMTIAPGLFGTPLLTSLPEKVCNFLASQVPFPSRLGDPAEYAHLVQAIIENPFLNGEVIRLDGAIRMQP

[3] = Table 3, read-out: Homo (%) (0.01 μM)
[4] = Table 3, read-out: Homo (%) (0.1 μM)
[5] = Table 3, 0.1 μM, read-out: Intact cells (%) (0.1 μM)
[6] = HEK293, [14C]-E2 (1 μM) into [14C]-E1, intact HEK-293 cells, 1 μM, read-out: Inhibition (%) at 1 μM
[7] = [14C]-E2 (1 μM) into [14C]-E1, intact HEK-293 cells, 1 μM

Structure (SMILES) | inhibition at 0.01 µM (17β-HSD3 [1]; [3]) [%] | inhibition at 0.1 µM (17β-HSD3 [1]; [4]) [%] | inhibition at 1 µM (17β-HSD10; [6]) [%] | Intact cells (%), tested at 1 μM (17β-HSD3 [2]) | Homo (%) (0.01 μM) (17β-HSD3 [1]; Table 3) | Homo (%) (0.1 μM) (17β-HSD3 [1]; Table 3) | Inhibition (%) at 1 μM (17β-HSD10; [7]) [%] | other results
COc1cccc(CN2CCN(C[C@@]3(O)CC[C@@]4(C)[C@@H](CC[C@@H]5[C@@H]4CC[C@]4(C)C(=O)CC[C@@H]54)C3)CC2)c1 [Compound 10f, (3α,5α)-3-hydroxy-3-{[4-(3-methoxybenzyl)piperazin-1-yl]methyl}androstan-17-one] | 21 | 83 | 59 | – | – | – | – | inhibition at 0.1 µM (17β-HSD3 [2]; [5]): 47%; IC50 (17β-HSD10): 550 nM
C[C@]12CC[C@](O)(CN3CCN(Cc4cccnc4)CC3)C[C@@H]1CC[C@@H]1[C@@H]2CC[C@]2(C)C(=O)CC[C@@H]12 [Compound 10g, (3α,5α)-3-hydroxy-3-{[4-(pyridin-3-ylmethyl)piperazin-1-yl]methyl}androstan-17-one] | 10 | 33 | 37 | N/A (63)^b % | – | – | – | –
CC1CN(C[C@@]2(O)CC[C@@]3(C)[C@@H](CC[C@@H]4[C@@H]3CC[C@]3(C)C(=O)CC[C@@H]43)C2)C(C)CN1Cc1cccc(C(F)(F)F)c1 (stereo partly drawn) [Compound 11a, (3α,5α)-3-({(2ξ,5ξ)-2,5-dimethyl-4-[3-(trifluoromethyl)benzyl]piperazin-1-yl}methyl)-3-hydroxyandrostan-17-one] | – | – | – | N/A (78)^b % | 31 | 89 | 26 | –
CC1CN(CC2(O)CCC3(C)C(CCC4C5CCC(=O)C5(C)CCC43)C2)C(C)CN1Cc1ccccc1C(F)(F)F (stereo not drawn) [Compound 11b, (3α,5α)-3-({(2ξ,5ξ)-2,5-dimethyl-4-[2-(trifluoromethyl)benzyl]piperazin-1-yl}methyl)-3-hydroxyandrostan-17-one] | – | – | – | – | 22 | 85 | 25 | Intact cells (%) (0.1 μM) (17β-HSD3 [2]; Table 3, 0.1 μM): 36%
CC1CN(C[C@@]2(O)CC[C@@]3(C)[C@@H](CC[C@@H]4[C@@H]3CC[C@]3(C)C(=O)CC[C@@H]43)C2)C(C)CN1Cc1ccc(C(F)(F)F)cc1 (stereo partly drawn) [Compound 11c, (3α,5α)-3-({(2ξ,5ξ)-2,5-dimethyl-4-[4-(trifluoromethyl)benzyl]piperazin-1-yl}methyl)-3-hydroxyandrostan-17-one] | – | – | – | – | 14 | 87 | 24 | Intact cells (%) (0.1 μM) (17β-HSD3 [2]; Table 3, 0.1 μM): 36%
CC1CN(C[C@@]2(O)CC[C@@]3(C)[C@@H](CC[C@@H]4[C@@H]3CC[C@]3(C)C(=O)CC[C@@H]43)C2)C(C)CN1Cc1cccc(SC(F)(F)F)c1 (stereo partly drawn) [Compound 11d, (3α,5α)-3-{[(2ξ,5ξ)-2,5-dimethyl-4-{3-[(trifluoromethyl)sulfanyl]benzyl}piperazin-1-yl]methyl}-3-hydroxyandrostan-17-one] | – | – | – | N/A (58)^b % | 18 | 88 | 27 | –
CC1CN(C[C@@]2(O)CC[C@@]3(C)[C@@H](CC[C@@H]4[C@@H]3CC[C@]3(C)C(=O)CC[C@@H]43)C2)C(C)CN1Cc1cccc(Cl)c1 (stereo partly drawn) [Compound 11e, (3α,5α)-3-{[(2ξ,5ξ)-4-(3-chlorobenzyl)-2,5-dimethylpiperazin-1-yl]methyl}-3-hydroxyandrostan-17-one] | – | – | – | N/A (55)^b % | 26 | 84 | 25 | –
COc1cccc(CN2CC(C)N(C[C@@]3(O)CC[C@@]4(C)[C@@H](CC[C@@H]5[C@@H]4CC[C@]4(C)C(=O)CC[C@@H]54)C3)CC2C)c1 (stereo partly drawn) [Compound 11f, (3α,5α)-3-hydroxy-3-{[(2ξ,5ξ)-4-(3-methoxybenzyl)-2,5-dimethylpiperazin-1-yl]methyl}androstan-17-one] | 19 | 87 | 21 | – | – | – | – | inhibition at 0.1 µM (17β-HSD3 [2]; [5]): 50%
CC1CN(CC2(O)CCC3(C)C(CCC4C5CCC(=O)C5(C)CCC43)C2)C(C)CN1Cc1cccnc1 (stereo not drawn) [Compound 11g, (3α,5α)-3-{[(2ξ,5ξ)-2,5-dimethyl-4-(pyridin-3-ylmethyl)piperazin-1-yl]methyl}-3-hydroxyandrostan-17-one] | – | – | – | N/A (58)^b % | 17 | 47 | 21 | –
C[C@]12CC[C@](O)(CN3CCN(C(=O)c4ccccc4C(F)(F)F)CC3)C[C@@H]1CC[C@@H]1[C@@H]2CC[C@]2(C)C(=O)CC[C@@H]12 [Compound 12c, (3α,5α)-3-hydroxy-3-[(4-{[2-(trifluoromethyl)phenyl]carbonyl}-piperazin-1-yl)methyl]androstan-17-one] | 31 | 86 | 47 | – | – | – | – | inhibition at 0.1 µM (17β-HSD3 [2]; [5]): 62%
CC1CN(C(=O)c2ccc(C(F)(F)F)cc2)C(C)CN1C[C@@]1(O)CC[C@@]2(C)[C@@H](CC[C@@H]3[C@@H]2CC[C@]2(C)C(=O)CC[C@@H]32)C1 (stereo partly drawn) [Compound 13d, (3α,5α)-3-{[(2,5)-2,5-dimethyl-4-{[4-(trifluoromethyl)phenyl]carbonyl}piperazin-1-yl]methyl}-3-hydroxyandrostan-17-one] | – | – | – | – | 17 | 91 | 22 | Intact cells (%) (0.1 μM) (17β-HSD3 [2]; Table 3, 0.1 μM): 61%
C[C@]12CC[C@](O)(CN3CCN(S(=O)(=O)c4cccc(C(F)(F)F)c4)CC3)C[C@@H]1CC[C@@H]1[C@@H]2CC[C@]2(C)C(=O)CC[C@@H]12 [Compound 14a, (3α,5α)-3-hydroxy-3-[(4-{[3-(trifluoromethyl)phenyl]sulfonyl}piperazin-1-yl)methyl]androstan-17-one] | 21 | 82 | 3 | N/A (71)^b % | – | – | – | –
C[C@]12CC[C@](O)(CN3CCN(S(=O)(=O)c4ccccc4C(F)(F)F)CC3)C[C@@H]1CC[C@@H]1[C@@H]2CC[C@]2(C)C(=O)CC[C@@H]12 [Compound 14b, (3α,5α)-3-hydroxy-3-[(4-{[2-(trifluoromethyl)phenyl]sulfonyl}piperazin-1-yl)methyl]androstan-17-one] | 45 | 92 | 32 | – | – | – | – | inhibition at 0.1 µM (17β-HSD3 [2]; [5]): 45%
C[C@]12CC[C@](O)(CN3CCN(S(=O)(=O)c4ccc(C(F)(F)F)cc4)CC3)C[C@@H]1CC[C@@H]1[C@@H]2CC[C@]2(C)C(=O)CC[C@@H]12 [Compound 14c, (3α,5α)-3-hydroxy-3-[(4-{[4-(trifluoromethyl)phenyl]sulfonyl}-piperazin-1-yl)methyl]androstan-17-one] | – | – | – | – | – | – | – | inhibition at 0.01 µM (17β-HSD3 [1]; read-out: Homo (%) (0.01 μM), Table 3): 21%; inhibition at 0.1 µM (17β-HSD3 [1]; read-out: Homo (%) (0.1 μM), Table 3): 78%; inhibition at 0.1 µM (17β-HSD3 [2]; read-out: Intact cells (%) (0.1 μM), Table 3, 0.1 μM): 34%; inhibition at 1 µM (17β-HSD10; HEK293, read-out: Inhibition (%) at 1 μM): 14%
CC1CN(S(=O)(=O)c2cccc(C(F)(F)F)c2)C(C)CN1C[C@@]1(O)CC[C@@]2(C)[C@@H](CC[C@@H]3[C@@H]2CC[C@]2(C)C(=O)CC[C@@H]32)C1 (stereo partly drawn) [Compound 15a, (3α,5α)-3-{[(2ξ,5ξ)-2,5-dimethyl-4-{[3-(trifluoromethyl)phenyl]sulfonyl}piperazin-1-yl]methyl}-3-hydroxyandrostan-17-one] | – | – | – | – | 32 | 91 | 42 | Intact cells (%) (0.1 μM) (17β-HSD3 [2]; Table 3, 0.1 μM): 77%
CC1CN(S(=O)(=O)c2ccccc2C(F)(F)F)C(C)CN1CC1(O)CCC2(C)C(CCC3C4CCC(=O)C4(C)CCC32)C1 (stereo not shown) [Compound 15c] | – | – | – | – | 79 | 92 | 18 | Intact cells (%) (0.1 μM) (17β-HSD3 [2]; Table 3, 0.1 μM): 47%
C[C@]12CC[C@@]3(C[C@@H]1CC[C@@H]1[C@@H]2CC[C@]2(C)C(=O)CC[C@@H]12)CN(CCO)C(=O)O3 [Compound 21, (3R,5S,8R,9S,10S,13S,14S)-3′-(2-hydroxyethyl)-10,13-dimethyltetrahydrodecahydro-2′H-spiro[cyclopenta[α]phenanthrene-3,5′-[1,3]oxazolidine]-2′,17(2H)-dione] | – | – | – | – | – | – | – | inhibition at 0.01 µM (17β-HSD3 [1]; read-out: Homo (%) (0.01 μM), Table 4): 0%; inhibition at 0.1 µM (17β-HSD3 [1]; read-out: Homo (%) (0.1 μM), Table 4): 9%; inhibition at 1 µM (17β-HSD3 [1]; read-out: Homo (%) (1.0 μM), Table 4, 1.0 μM): 38%; Intact cells (%) (0.1 μM), tested in another experiment (17β-HSD3 [2]; Table 4, footnote b, 0.1 μM): 16^b %; IC50 (17β-HSD10): 550 nM
